The values that follow come from ChEMBL document CHEMBL1154582, “Thonningianins A and B, new antioxidants from the African medicinal herb Thonningia sanguinea” (J Nat Prod, 2000).

Holding throughout (assay type): functional
The nature of experiment [1]: DPPH radical scavenging activity at 34.5 uM by ESR spectra. (DPPH is a stable violet radical that fades when it is reduced.)
Experiment [2] is described as follows: DPPH radical scavenging activity by ESR spectra.
Experiment [3] in a line: DPPH radical scavenging activity at 25 uM by ESR spectra.

Each structure is given as a SMILES string. Activity calls are given as the source filed them. The calls are words filed in the database; no cut-off is given here.

The term IC50 denotes the concentration at which inhibition is half-maximal. A higher IC50 goes with lower potency. As to `O=C1OC[C@H]2O[C@@H](Oc3cc(O)c(C(=O)CCc4ccccc4)c(O)c3)[C@H](O)[C@@H](O)[C@@H]2OC(=O)c2cc(O)c(O)c(O)c2-c2c1cc(O)c(O)c2O` [THONNINGIANIN B], in experiment [1], the Activity was 90%. Moreover, the midpoint of inhibition in experiment [2], the IC50, lay at 21 µM.

On to `O=C(O[C@@H]1[C@@H](O)[C@H](Oc2cc(O)c(C(=O)CCc3ccccc3)c(O)c2)O[C@@H]2COC(=O)c3cc(O)c(O)c(O)c3-c3c(cc(O)c(O)c3O)C(=O)O[C@@H]12)c1cc(O)c(O)c(O)c1` [THONNINGIANIN A], for which the outcome in experiment [3] was Active. In experiment [2], this molecule came in with a half-maximal inhibitory concentration (IC50) of 8 µM.
